Measurements taken from US9217743B2, “Screening method utilizing thalidomide-targeting factor” (Tokyo Institute of Technology, priority 2009, dated 2015).
Changes are numbered by the printed parent chain. Entries after “also recorded” stand apart in the source; their conditions may differ.

Assays:
CRBN YW/AA (Y384A/W386A) = molecular target: T1, CRBN YW/AA (Y384A/W386A) (Homo sapiens, UniProt Q96SW2, W386A/Y384A); test: Binding of CRBN double mutant from 293T extracts to thalidomide-immobilized beads
T1 construct: expressed in transfected cells; host or cells: 293T
Description: First, thalidomide-binding region was investigated by using the N-terminal and C-terminal deletion mutants. […] The present inventors investigated whether this CRBN YW/AA functionally active in the cells. The subcellular localization of this mutant was indistinguishable from that of wild-type CRBN.
Recombinant CRBN-FLAG and DDB1-V5-His proteins were expressed in the insect Sf9 cells by using the Bac-to-bac baculovirus expression system (Invitrogen) and purified using anti-FLAG M2 agarose beads (Sigma) and Ni-NTA agarose beads (Qiagen), respectively. Purified CRBN-FLAG and/or DDB1-V5-His were mixed with thalidomide-immobilized beads, and the bound proteins were eluted with an SDS sample buffer. For analysis of CRBN-deletion mutant, GST-fused CRBN and its mutants were expressed in E. coli BL21 and purified using glutathione Sepharose (GE Healthcare). CRBN mutants were overexpressed in 293T cells by transfection using Lipofectamine 2000 (Invitrogen). Subsequent binding assays were carried out as described above.

zCrbn = molecular target: T2, zCrbn (Danio rerio, UniProt Q68EH9, D160E); test: Binding of FH-zCrbn from 293T extracts to thalidomide beads; set-up: species or system zebrafish; details: FH-zCrbn in 293T extract
T2 construct: expressed in transfected cells; host or cells: 293T (stably expressing FH-zCrbn)
T2 sequence (Q68EH9 1-431 D160E): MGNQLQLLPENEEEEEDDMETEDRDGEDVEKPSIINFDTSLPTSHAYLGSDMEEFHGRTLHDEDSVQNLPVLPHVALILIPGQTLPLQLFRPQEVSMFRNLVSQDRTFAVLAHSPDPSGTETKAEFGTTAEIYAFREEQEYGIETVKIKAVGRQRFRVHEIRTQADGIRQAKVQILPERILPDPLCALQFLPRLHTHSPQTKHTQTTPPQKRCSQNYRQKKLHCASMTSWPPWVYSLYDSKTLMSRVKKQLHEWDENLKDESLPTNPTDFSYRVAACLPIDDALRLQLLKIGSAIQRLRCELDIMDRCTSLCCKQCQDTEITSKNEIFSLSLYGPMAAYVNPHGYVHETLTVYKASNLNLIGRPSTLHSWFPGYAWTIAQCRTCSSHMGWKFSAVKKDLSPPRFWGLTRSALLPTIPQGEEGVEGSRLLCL
Method: (§1) FIG. 14 relates to biochemical analysis results of zCrbn. […] Bound proteins were eluted by thalidomide, and eluate were analyzed by western blotting. zCrbn bound to thalidomide. (B) Lysate from 293T cells overexpressing FH-zCrbn was immunoprecipitated with anti-FLAG antibody, and DDB1 was detected by western blotting. […] (C) Lysate from FLAG-zCrbn (wild type) or FLAG-zCrbn YW/AA overexpressed in 293T cells was mixed with thalidomide beads. For quantification, various amounts of input and eluate fraction were analyzed by western blotting.

zCrbn YW/AA = molecular target: T3, zCrbn YW/AA (Danio rerio, UniProt Q68EH9, W376A/Y374A); test: Binding of FLAG-zCrbn YW/AA from 293T lysate to thalidomide beads; set-up: species or system zebrafish; details: FLAG-zCrbn YW/AA in 293T lysate
T3 construct: expressed in transfected cells; host or cells: 293T
T3 sequence (Q68EH9 1-431 Y374A/W376A): T2 sequence (Q68EH9 1-431 D160E) with E160D, Y374A, W376A
Method: as §1
If so, its teratogenicity should be alleviated by expression of functionally active but thalidomide-binding-defective zCrbn. To examine this idea, the present inventors prepared mutants in which Y374 and W376 are substituted with alanine (corresponding to YW/AA in humans, namely Y384A/W386A). The zCrbn YW/AA has extremely low thalidomide-binding activity. In the absence of thalidomide, Overexpression of wild-type zCrbn or zCrbn YW/AA had no discernible effect on fin and otic vesicle development. […] Also thalidomide treatment of embryos overexpressing wild-type zCrbn reduced the size of otic vesicles to approximately 66% of the control size. […] Thalidomide-induced fin degeneration was also rescued by overexpression of zCrbn YW/AA.

fgf8a = test: Whole-mount in situ hybridization of zebrafish fin buds; type: in vivo
Description: (§2) To obtain a clue to the pathway(s) downstream of CRBN and thalidomide, the present inventors analyzed well-known key molecules in fin development. Sonic hedgehog (Shh) is expressed in the zone of polarizing activity (ZPA) and is responsible for anteroposterior patterning of the limb and fin (Cited Literature 27), whereas Fgf8 is expressed in the apical ectodermal ridge (AER) of the limb and fin and is necessary for outgrowth of the limb and fin along the proximodistal axis. […] Thus, an inhibitor of FGF8 production is a possible downstream target of thalidomide and the CRBN-containing E3 complex.
(§3) This assay was carried out in accordance with Cited Literature 41. Antisense probe for zcrbn mRNA was directed against the 5′-coding region of 513 bp. Antisense probe for zcul4a was directed against the 3′ untranslated region (3′ UTR) of 590 bp. Probes for shh and fgf8 were kindly provided by Dr. Krauss and Dr. Thisse, respectively. To increase permeability of probes, fixed embryos were incubated with PBS containing 0.1% Tween-20 and […] proteinase K for two minutes at room temperature.

shh = test: as above; type: in vivo; details: thalidomide-treated 48-hpf embryos
Description: as §2, §3

DDB1 = test: Elution of DDB1 from thalidomide-immobilized beads by test compound, Western blotting; details: Example 6; 293T extracts; elution with 1 mM compound

T1 sequence (Q96SW2 whole entry Y384A/W386A): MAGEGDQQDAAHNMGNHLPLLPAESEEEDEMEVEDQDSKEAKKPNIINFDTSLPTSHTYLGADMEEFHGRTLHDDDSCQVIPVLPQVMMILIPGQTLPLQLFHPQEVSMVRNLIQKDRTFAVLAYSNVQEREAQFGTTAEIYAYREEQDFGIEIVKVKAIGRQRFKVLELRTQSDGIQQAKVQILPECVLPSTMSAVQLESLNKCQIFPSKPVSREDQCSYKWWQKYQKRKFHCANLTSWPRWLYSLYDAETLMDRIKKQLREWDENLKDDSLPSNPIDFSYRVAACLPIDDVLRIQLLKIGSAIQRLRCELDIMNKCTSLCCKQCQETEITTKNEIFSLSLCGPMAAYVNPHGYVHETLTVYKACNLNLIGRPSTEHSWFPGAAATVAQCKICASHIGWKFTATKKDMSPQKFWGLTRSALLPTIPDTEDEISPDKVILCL

Structure (SMILES): O=C1CCC(N2C(=O)c3ccccc3C2=O)C(=O)N1 (stereo not shown) [thalidomide]
- thalidomide-binding activity of CRBN YW/AA (CRBN YW/AA (Y384A/W386A)): extremely low
- binding of zCrbn to thalidomide (zCrbn): bound
- thalidomide-binding activity of zCrbn YW/AA (zCrbn YW/AA): extremely low; also recorded: obviously weak
- fgf8a expression (fgf8a; thalidomide-treated 48-hpf embryos): reduced or absent; also recorded: severely reduced
- fgf8a expression (fgf8a; thalidomide-treated embryos injected with zCrbn YW/AA): restored
- shh expression (shh): no change
- DDB1 in the eluate fraction (DDB1): detected
